Reference: the supplement of paper PMC10627819

Tests used:
S. pneumoniae D39V = assay: fitness (endpoint OD595 vs no drug) (fraction); higher = more growth
In short: (§1)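 Fitness is computed from the optical density at which cultures reach stationary phase, divided by the robust mean of no-drug control wells. Any value above 1 is set to 1. Cultures started at OD595 0.01 in 384-well plates with TSB, LB Lennox or CY at 37 °C, and OD595 was read every 30 min for 14 h against a first-reading background.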

S. aureus DSM 20231 = assay: as above
In short: as §1
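Further: OD595 on entry to stationary phase over no-drug wells; at most 1.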

CC(=O)Oc1ccccc1C(=O)O [Acetylsalicylic acid] + CC1=C\[C@@H](O)CC(=O)Cc2nc(co2)C(=O)N2CCC=C2C(=O)O[C@H](C(C)C)[C@H](C)/C=C/C(=O)NC\C=C\1 [Virginiamycin M1]
fitness, one replicate
Details	first compound 250 µg/mL	first compound 500 µg/mL	first compound 1000 µg/mL
S. aureus DSM 20231, partner 0.5 µg/mL	0.776	0.789	0.371
S. aureus DSM 20231, partner 1 µg/mL	0.818	0.781	0.389
S. pneumoniae D39V, partner 0.15 µg/mL	0.954	0.988	0.949
S. pneumoniae D39V, partner 0.3 µg/mL	0.951	0.938	0.918

fitness
Details	first compound 250 µg/mL	first compound 500 µg/mL	first compound 1000 µg/mL
S. aureus DSM 20231, partner 0.0625 µg/mL	0.86	0.764	0.564
S. aureus DSM 20231, partner 0.125 µg/mL	0.922	–	–
S. aureus DSM 20231, partner 0.25 µg/mL	0.877	0.715	0.503
S. pneumoniae D39V, partner 0.5 µg/mL	0.967	0.964	0.872
S. pneumoniae D39V, partner 1 µg/mL	0.914	0.961	–
S. pneumoniae D39V, partner 2 µg/mL	0.933	0.903	–

CC(=O)Oc1ccccc1C(=O)O [Acetylsalicylic acid] + CC(=O)NC[C@H]1CN(c2ccc(N3CCOCC3)c(F)c2)C(=O)O1 [Linezolid]
fitness
Details	first compound 250 µg/mL	first compound 500 µg/mL	first compound 1000 µg/mL
S. aureus DSM 20231, partner 0.125 µg/mL	0.868	–	0.509
S. aureus DSM 20231, partner 0.25 µg/mL	0.582	0.486	0.275
S. aureus DSM 20231, partner 0.5 µg/mL	0.203	0.159	0.117
S. pneumoniae D39V, partner 0.105 µg/mL	0.879	0.866	0.776
S. pneumoniae D39V, partner 0.2 µg/mL	0.675	0.623	0.463
S. pneumoniae D39V, partner 0.21 µg/mL	0.756	0.773	0.712
S. pneumoniae D39V, partner 0.4 µg/mL	0.598	0.582	0.439
S. pneumoniae D39V, partner 0.42 µg/mL	0.573	0.561	0.442
S. pneumoniae D39V, partner 0.8 µg/mL	0.252	0.24	0.208

S. aureus DSM 20231, partner 1 µg/mL, one replicate
Details	fitness
first compound 250 µg/mL	0.0592
first compound 500 µg/mL	0.0468
first compound 1000 µg/mL	0.0354

CC(=O)Oc1ccccc1C(=O)O [Acetylsalicylic acid] + CCC[C@@H]1C[C@@H](C(=O)N[C@@H]([C@H]2O[C@H](SC)[C@H](O)[C@@H](O)[C@H]2O)[C@@H](C)O)N(C)C1 [Lincomycin]
fitness
Details	partner 0.1 µg/mL	partner 0.2 µg/mL	partner 0.215 µg/mL	partner 0.4 µg/mL	partner 0.43 µg/mL	partner 0.8 µg/mL	partner 0.86 µg/mL
S. aureus DSM 20231, first compound 250 µg/mL	0.863	0.84	–	–	–	–	–
S. aureus DSM 20231, first compound 500 µg/mL	0.81	0.795	–	–	–	–	–
S. aureus DSM 20231, first compound 1000 µg/mL	–	–	–	0.204	–	–	–
S. pneumoniae D39V, first compound 250 µg/mL	–	0.528	0.866	0.389	0.748	0.116	0.377
S. pneumoniae D39V, first compound 500 µg/mL	–	0.455	0.824	0.368	0.749	0.0711	0.389
S. pneumoniae D39V, first compound 1000 µg/mL	–	0.344	0.841	0.213	0.746	0.0378	0.35

CC(=O)Oc1ccccc1C(=O)O [Acetylsalicylic acid] + CCC[C@@H]1C[C@@H](C(=O)N[C@@H]([C@H]2O[C@H](SC)[C@H](O)[C@@H](O)[C@H]2O)[C@H](C)Cl)N(C)C1 [Clindamycin]
fitness
Details	first compound 250 µg/mL	first compound 500 µg/mL	first compound 1000 µg/mL
S. aureus DSM 20231, partner 0.0312 µg/mL	–	–	0.28
S. aureus DSM 20231, partner 0.0625 µg/mL	0.143	0.169	0.114
S. aureus DSM 20231, partner 0.125 µg/mL	0.0488	0.0833	0.0683
S. pneumoniae D39V, partner 0.0125 µg/mL	0.759	0.697	0.508
S. pneumoniae D39V, partner 0.015 µg/mL	0.857	0.771	0.528
S. pneumoniae D39V, partner 0.025 µg/mL	0.468	0.435	0.37
S. pneumoniae D39V, partner 0.03 µg/mL	0.677	0.574	0.37
S. pneumoniae D39V, partner 0.05 µg/mL	0.164	0.166	0.129
S. pneumoniae D39V, partner 0.06 µg/mL	0.331	0.246	0.104

CC(=O)Oc1ccccc1C(=O)O [Acetylsalicylic acid] + CCN(CC)CCOC(=O)c1ccc(N)cc1 [Procaine]
fitness
Details	partner 85.5 µg/mL	partner 171 µg/mL	partner 342 µg/mL
S. aureus DSM 20231, first compound 250 µg/mL	0.916	0.971	0.963
S. aureus DSM 20231, first compound 500 µg/mL	0.849	0.896	–
S. pneumoniae D39V, first compound 250 µg/mL	≥ 1	0.989	0.966
S. pneumoniae D39V, first compound 500 µg/mL	≥ 1	0.995	0.97
S. pneumoniae D39V, first compound 1000 µg/mL	0.922	0.86	0.89

CC(=O)Oc1ccccc1C(=O)O [Acetylsalicylic acid] + CN1C2=CC=CC=C2N=C3C1=CC=CC3=O [Pyocyanin]
fitness
Details	first compound 250 µg/mL	first compound 500 µg/mL	first compound 1000 µg/mL
S. aureus DSM 20231, partner 1.25 µg/mL	0.826	0.679	0.525
S. aureus DSM 20231, partner 2.5 µg/mL	0.751	0.607	0.437
S. aureus DSM 20231, partner 5 µg/mL	0.611	0.551	0.268
S. pneumoniae D39V, partner 0.325 µg/mL	≥ 1	0.995	0.917
S. pneumoniae D39V, partner 0.65 µg/mL	1	0.98	0.681
S. pneumoniae D39V, partner 1.3 µg/mL	0.863	0.722	0.467

CC(=O)Oc1ccccc1C(=O)O [Acetylsalicylic acid] + CN(C)[C@@H]1C(O)=C(C(N)=O)C(=O)[C@@]2(O)C(O)=C3C(=O)c4c(O)ccc(Cl)c4[C@@](C)(O)[C@H]3C[C@@H]12 [Chlortetracycline]
fitness
Details	partner 0.012 µg/mL	partner 0.024 µg/mL	partner 0.048 µg/mL	partner 0.375 µg/mL	partner 0.75 µg/mL	partner 1.5 µg/mL
S. aureus DSM 20231, first compound 250 µg/mL	0.525	–	–	–	–	–
S. aureus DSM 20231, first compound 500 µg/mL	0.467	0.221	0.0964	–	–	–
S. aureus DSM 20231, first compound 1000 µg/mL	0.21	0.0899	0.0347	–	–	–
S. pneumoniae D39V, first compound 250 µg/mL	0.842	0.658	0.322	0.123	0.119	0.101
S. pneumoniae D39V, first compound 500 µg/mL	0.831	0.606	0.281	0.129	0.0804	0.138
S. pneumoniae D39V, first compound 1000 µg/mL	0.669	0.47	0.297	0.0772	0.0378	0.0721

S. aureus DSM 20231, partner 0.006 µg/mL, one replicate
Details	fitness
first compound 250 µg/mL	0.686
first compound 500 µg/mL	0.525
first compound 1000 µg/mL	0.342

CC(=O)Oc1ccccc1C(=O)O [Acetylsalicylic acid] + CN(N=O)C(=O)N[C@@H](C=O)[C@@H](O)[C@H](O)[C@H](O)CO [Streptozotocin]
fitness
Details	first compound 250 µg/mL	first compound 500 µg/mL	first compound 1000 µg/mL
S. aureus DSM 20231, partner 0.15 µg/mL	0.778	0.635	–
S. aureus DSM 20231, partner 0.3 µg/mL	0.771	0.584	0.484
S. aureus DSM 20231, partner 0.6 µg/mL	0.64	0.578	0.414
S. pneumoniae D39V, partner 1.2 µg/mL	0.933	0.91	–
S. pneumoniae D39V, partner 2.4 µg/mL	0.934	0.9	–
S. pneumoniae D39V, partner 4.8 µg/mL	0.933	0.824	–

CC(=O)Oc1ccccc1C(=O)O [Acetylsalicylic acid] + CN[C@@H]1[C@H](O)[C@H](NC)[C@H]2O[C@@]3(O)C(=O)C[C@@H](C)O[C@H]3O[C@@H]2[C@H]1O [Spectinomycin]
fitness
Details	partner 4 µg/mL	partner 8 µg/mL	partner 16 µg/mL
S. aureus DSM 20231, first compound 250 µg/mL	0.871	0.866	–
S. pneumoniae D39V, first compound 250 µg/mL	0.934	0.911	0.817
S. pneumoniae D39V, first compound 500 µg/mL	0.862	0.801	0.691
S. pneumoniae D39V, first compound 1000 µg/mL	0.64	0.601	0.536

fitness, S. aureus DSM 20231, one replicate
Details	first compound 250 µg/mL	first compound 500 µg/mL	first compound 1000 µg/mL
partner 32 µg/mL	0.541	0.631	0.101
partner 64 µg/mL	0.253	0.32	0.042

CC(=O)Oc1ccccc1C(=O)O [Acetylsalicylic acid] + CN[C@H](CC(C)C)C(=O)N[C@H]1C(=O)N[C@@H](CC(N)=O)C(=O)N[C@H]2C(=O)N[C@H]3C(=O)N[C@H](C(=O)N[C@H](C(=O)O)c4cc(O)cc(O)c4-c4cc3ccc4O)[C@H](O)c3ccc(c(Cl)c3)Oc3cc2cc(c3O[C@@H]2O[C@H](CO)[C@@H](O)[C@H](O)[C@H]2O[C@H]2C[C@](C)(N)[C@H](O)[C@H](C)O2)Oc2ccc(cc2Cl)[C@H]1O [Vancomycin]
fitness
Details	first compound 250 µg/mL	first compound 500 µg/mL	first compound 1000 µg/mL
S. aureus DSM 20231, partner 0.1875 µg/mL	0.871	0.79	0.592
S. aureus DSM 20231, partner 0.375 µg/mL	0.953	–	0.562
S. aureus DSM 20231, partner 0.75 µg/mL	0.947	–	–
S. pneumoniae D39V, partner 0.03125 µg/mL	0.956	0.934	0.839
S. pneumoniae D39V, partner 0.0625 µg/mL	0.894	0.885	0.826
S. pneumoniae D39V, partner 0.125 µg/mL	0.927	0.917	0.84
S. pneumoniae D39V, partner 0.25 µg/mL	0.984	0.961	0.83
S. pneumoniae D39V, partner 0.5 µg/mL	0.105	0.0715	0.0849

CC(=O)Oc1ccccc1C(=O)O [Acetylsalicylic acid] + CO/N=C(\C(=O)N[C@@H]1C(=O)N2C(C(=O)O)=C(COC(C)=O)CS[C@H]12)c1csc(N)n1 [Cefotaxime]
fitness
Details	partner 0.0018 µg/mL	partner 0.0035 µg/mL	partner 0.007 µg/mL	partner 0.039 µg/mL	partner 0.078 µg/mL	partner 0.156 µg/mL	partner 0.312 µg/mL
S. aureus DSM 20231, first compound 250 µg/mL	–	–	–	0.706	0.695	0.641	0.605
S. aureus DSM 20231, first compound 500 µg/mL	–	–	–	0.614	0.608	0.561	0.507
S. aureus DSM 20231, first compound 1000 µg/mL	–	–	–	0.509	0.443	0.343	0.148
S. pneumoniae D39V, first compound 250 µg/mL	0.984	0.967	0.936	–	–	–	–
S. pneumoniae D39V, first compound 500 µg/mL	≥ 1	0.992	0.962	–	–	–	–
S. pneumoniae D39V, first compound 1000 µg/mL	0.97	0.89	0.823	–	–	–	–
